According to patent US8715761B2, “Flavor molecules” (Givaudan S.A., priority 2008, dated 2014):

How the values were obtained:
Type in all cases: in vivo
[1] = Isointensity (R-index) of 20 ppm Compound 13 in water, alone and with 7% sucrose, versus sucrose solutions
Excerpt: The sweet enhancement effect of Compound 13 is illustrated in the following tables: the isointensity of Compound 13 at 20 ppm equals 0.5% sucrose. The isointensity of 7% sucrose with 20 ppm 1-(2-hydroxyphenyl)-3-(pyridin-4-yl)propan-1-one is 8% sucrose. Therefore, the perceived enhancement of sucrose is about 0.5% sucrose (8%-7.5%). This sweet enhancement effect is also observed with consumable products containing other natural and artificial sweeteners, for example, carbohydrates; sucrose, lactose, D-glucose, D-tagatose, D-fructose whether naturally- or synthetically-produced, erythritol, threitol, arabitol, ribitol, xylitol, sorbitol, mannitol, maltitol, isomaltitol, dulcitol, and lactitol, thaumatin, glycin, D-phenylalanine, D-tryptophan, sodium cyclamate, acesulfam K, neohesperidine dihydrochalcone, sodium salt of saccharin, aspartame, superaspartame, neotam, alitam, sucralose, and stevioside.

[2] = Taste testing in water by a panel of experienced tasters
Excerpt: The taste testing was made by a panel of experienced tasters.

[3] = Flavorist evaluation of how Compound 13 modifies a flavor in water and in application
Excerpt: Evaluation Data on the Compound of Example 13, showing how it Modifies a Flavor in Water and in Application.
Strawberry A=candy strawberry. Strawberry B=green strawberry. Strawberry C=floral strawberry. Strawberry D=fruity strawberry.

[4] = Sweet isointensity against sugar solutions by a testing panel
Procedure: The sweet isointensity was tested against a variety of sugar solutions by a testing panel.

[5] = Sweetness in plain non-fat yoghurt by a trained panel; conditions: 5% sugar and 25 ppm of the compound in plain non-fat yoghurt
Procedure: 5% sugar and 25 ppm of the compound were added to plain non-fat yoghurt. A trained panel compared this to a series of plain non-fat yoghurts to which 5%, 6% 7% and 8% sugar had been added.

[6] = 7% sucrose + 20 ppm Cmpd 13 in water vs. 7% sucrose
[7] = 7% sucrose + 20 ppm Cmpd 13 in water vs. 8% sucrose
[8] = 7% sucrose + 20 ppm Cmpd 13 in water vs. 9% sucrose
[9] = 7% sucrose + 20 ppm Cmpd 13 in water vs. 10% sucrose
[10] = 20 ppm Compound 13 in water vs. 0.5% sucrose
[11] = 20 ppm Compound 13 in water vs. 1% sucrose

O=C(CCc1ccncc1)c1ccccc1O [Example 13, 1-(2-hydroxyphenyl)-3-(pyridin-4-yl)propan-1-one]
R-index [1, 6]: 66%
sample sweetness [1, 6]: sweeter
R-index [1, 7]: 43%
sample sweetness [1, 7]: isosweet
R-index [1, 8]: 8%
sample sweetness [1, 8]: less
R-index [1, 9]: 4%
sample sweetness [1, 9]: less
isointensity ([1]; 7% sucrose with 20 ppm compound): 8 % sucrose
R-index [1, 10]: 61%
sample sweetness [1, 10]: isosweet
R-index [1, 11]: 14%
sample sweetness [1, 11]: less sweet
perceived enhancement of sucrose ([1]; 20 ppm in 7% sucrose (8%-7.5%)): about 0.5 % sucrose
isointensity ([1]; 20 ppm in water): 0.5 % sucrose
Taste results in water ([2]; 0.01 ppm to 0.1 ppm): nothing
Taste results in water ([2]; 1 ppm): weak sweet
Taste results in water ([2]; 10 ppm): sweet
Taste results in water ([2]; 100 ppm): very sweet, licorice linger
Flavorist Evaluation ([3]; 2% milk, 20 ppm compound 13): Slight change in profile, Sweeter than control
Flavorist Evaluation ([3]; Cereal, 50% reduced sugar + 20 ppm of compound 13): Not lingering, more brown notes, roasted,
Flavorist Evaluation ([3]; Cereal, 50% reduced sugar + 20 ppm of compound 13 + 100 ppm of Sweet Flavor B): Nice, works well, more close to sugar taste,
Flavorist Evaluation ([3]; Cereal, 50% reduced sugar + 50 ppm of compound 13): Sweeter than 50% reduced control, better
Flavorist Evaluation ([3]; Strawberry yoghurt, 3% fat, 7% sugar, Strawberry flavour D @ 0.1% + 10 ppm of compound 13): Fruity, slightly fermented, caramellic, green
Flavorist Evaluation ([3]; Strawberry yoghurt, 3% fat, 7% sugar, Strawberry flavour D @ 0.1% + 25 ppm of compound 13): Fruity, sweet, fermented, caramellic, apple like
Flavorist Evaluation ([3]; Strawberry yoghurt, 3% fat, 7% sugar, Strawberry flavour D @ 0.1% + 50 ppm of compound 13): Fermented, sweet, brown, caramellic, overripe
Flavorist Evaluation ([3]; Vanilla ice cream, 8% vegetable fat, Vanilla flavour A @ 0.5% + 10 ppm of compound 13): creamy, vanillic, sweet, slightly cooked
Flavorist Evaluation ([3]; Vanilla ice cream, 8% vegetable fat, Vanilla flavour A @ 0.5% + 15 ppm of compound 13): creamy, sweet, vanillic, lingering sweet vanilla
Flavorist Evaluation ([3]; Vanilla ice cream, 8% vegetable fat, Vanilla flavour A @ 0.5% + 30 ppm of compound 13): sweet, vanillic, lingering sweet vanilla
Flavorist Evaluation ([3]; Water, 7% sugar + 20 ppm of compound 13): Sweeter than 7% sugar, little floral, fuller, slight
Flavorist Evaluation ([3]; Water, 7% sugar + 50 ppm of compound 13): Sweeter than above, very close to 9% sugar-
Flavorist Evaluation ([3]; Water, 7% sugar with 0.105% Citric acid + 20 ppm of compound 13): Sweeter than control, not effecting acidity,
Flavorist Evaluation ([3]; Water, 7% sugar with 0.105% Citric acid + 50 ppm of compound 13): Sweeter than sample at 20 ppm, musty, clean,
Flavorist Evaluation ([3]; Water, Strawberry A @ 0.2% + 20 ppm compound 13): Green character remains but softer, sweeter
Flavorist Evaluation ([3]; Water, Strawberry B @ 0.2% + 20 ppm compound 13): Sweeter, less green, jammer, maltol-like note,
Flavorist Evaluation ([3]; Water, Strawberry C @ 0.2% + 20 ppm compound 13): Less green, less floral, burnt sugar caramel
Flavorist Evaluation ([3]; Water, Sweetness Improver Flavor A + 5 ppm compound 13 in 25% sugar reduction Grape Type Drink): Sweet grape character with the acidic middle

Cl.O=C(CCc1ccncc1)c1ccccc1O [Example 21, 4-(3-(2-hydroxyphenyl)-3-oxopropyl)pyridinium chloride]
sweet isointensity (isosweet to) ([4]; 30 ppm): 0.75 % sucrose
sweetness equivalent ([4]; 30 ppm of the compound + 7% sucrose): 8.5 % sucrose
sweet isointensity (isosweet to) ([4]; 35 ppm): 1.0 % sucrose
sweet isointensity (isosweet to) ([4]; 40 ppm): 1.25 % sucrose
isosweet to [5]: 6.5 % sugar

O=C(CCc1ccco1)c1ccccc1O [Example 8, 3-(furan-2-yl)-1-(2-hydroxyphenyl)propan-1-one]
Taste results in water ([2]; 0.01 ppm): nothing
Taste results in water ([2]; 0.1 ppm): soap, delayed sweet
Taste results in water ([2]; 1 ppm): soap, umami, bitter
Taste results in water ([2]; 10 ppm): licorice aroma, soapy, weak sweet, bitter, vegetable, terpen
Taste results in water ([2]; 100 ppm): bitter, licorice aroma, weak sweet, celery, umami, brothy

Cc1csc(CCC(=O)c2ccccc2O)n1 [Example 11, 1-(2-hydroxyphenyl)-3-(4-methylthiazol-2-yl)propan-1-one]
Taste results in water ([2]; 0.01 ppm): nothing
Taste results in water ([2]; 0.1 ppm): very weak bitter
Taste results in water ([2]; 1 ppm): astringent, bitter
Taste results in water ([2]; 10 ppm): bitter, astringent
Taste results in water ([2]; 100 ppm): bitter, terpen, weak sweet

COc1ccc(CCC(=O)c2ccc(O)cc2O)cn1 [Example 18]
Taste results in water ([2]; 100 ppm): 100 ppm, sweet

O=C(CCc1ccccn1)c1ccccc1O [Example 12, 1-(2-hydroxyphenyl)-3-(pyridin-2-yl)propan-1-one]
Taste results in water ([2]; 1 ppm): umami
Taste results in water ([2]; 10 ppm): high umami like taste
Taste results in water ([2]; 100 ppm): strong umami, slightly bitter

COc1ccc(CCC(=O)c2ccccc2O)cn1 [Example 1, 1-(2-hydroxyphenyl)-3-(6-methoxypyridin-3-yl)propan-1-one]
Taste results in water ([2]; 5 ppm): very weak sweet
Taste results in water ([2]; 20 ppm): weakly sweet
Taste results in water ([2]; 100 ppm): very strong sweet, weak bitter taste

Cc1cc(CCC(=O)c2ccccc2O)no1 [Example 6, 1-(2-hydroxyphenyl)-3-(5-methylisoxazol-3-yl)propan-1-one]
Taste results in water ([2]; 0.1 ppm): slightly bitter
Taste results in water ([2]; 1 ppm): slightly bitter, weakly sweet
Taste results in water ([2]; 10 ppm): brothy, umami, soapy, irritating, garlic
Taste results in water ([2]; 100 ppm): umami, bitter, soapy, garlic

COc1ncccc1CCC(=O)c1ccccc1O [Example 3, 1-(2-hydroxyphenyl)-3-(2-methoxypyridin-3-yl)propan-1-one]
Taste results in water ([2]; 1 ppm): Very weak sweet
Taste results in water ([2]; 10 ppm): Very weak sweet
Taste results in water ([2]; 50 ppm): bitter, weakly sweet and burning

Cc1ncsc1CCC(=O)c1ccccc1O [Example 4, 1-(2-hydroxyphenyl)-3-(4-methylthiazol-5-yl)propan-1-one]
Taste results in water ([2]; 0.1 to 1 ppm): petroleum, sulfur
Taste results in water ([2]; 10 ppm): very weak sweet, brothy
Taste results in water ([2]; 100 ppm): sweet, brothy, gassy, bitter, linger

COc1cccc(CCC(=O)c2ccccc2O)n1 [Example 2, 1-(2-hydroxyphenyl)-3-(6-methoxypyridin-2-yl) propan-1-one]
Taste results in water ([2]; 10 ppm): Slightly sweet/bitter
Taste results in water ([2]; 100 ppm): sweet, bitter, slight fruity

O=C(CCc1cccnc1)c1ccccc1O [Example 7, 1-(2-hydroxyphenyl)-3-(pyridin-3-yl)propan-1-one]
Taste results in water ([2]; 0.1 ppm): nothing
Taste results in water ([2]; 1 ppm): very weak sweet, astringent
Taste results in water ([2]; 10 ppm): waxy, delayed sweet, astringent
Taste results in water ([2]; 100 ppm): weak sweet, chemical, bitter

O=C(CCc1nccs1)c1ccccc1O [Example 15, 1-(2-hydroxyphenyl)-3-(thiazol-2-yl)propan-1-one]
Taste results in water ([2]; 0.01 ppm): delayed umami aftertaste
Taste results in water ([2]; 0.1 ppm): delayed umami aftertaste
Taste results in water ([2]; 1 ppm): weak plastic, soap, umami, astringent
Taste results in water ([2]; 10 ppm): astringent. strong umami, weak soap, slight bitter
Taste results in water ([2]; 100 ppm): bitter. umami
